Biological target: Beta-secretase 1 (Homo sapiens, UniProt P56817)
Experiment: Fluorescence Resonance Energy Transfer (FRET) Assay
Conditions: 20 °C
Procedure: The FRET assay was performed at 20 C on a FLUOstar (BMG Lab Technologies, D-77656 Offenburg) using 96-well microtiter plates (Dynex Microfluor 2, Chantilly, VA).

Sequence of Beta-secretase 1 (P56817 whole entry): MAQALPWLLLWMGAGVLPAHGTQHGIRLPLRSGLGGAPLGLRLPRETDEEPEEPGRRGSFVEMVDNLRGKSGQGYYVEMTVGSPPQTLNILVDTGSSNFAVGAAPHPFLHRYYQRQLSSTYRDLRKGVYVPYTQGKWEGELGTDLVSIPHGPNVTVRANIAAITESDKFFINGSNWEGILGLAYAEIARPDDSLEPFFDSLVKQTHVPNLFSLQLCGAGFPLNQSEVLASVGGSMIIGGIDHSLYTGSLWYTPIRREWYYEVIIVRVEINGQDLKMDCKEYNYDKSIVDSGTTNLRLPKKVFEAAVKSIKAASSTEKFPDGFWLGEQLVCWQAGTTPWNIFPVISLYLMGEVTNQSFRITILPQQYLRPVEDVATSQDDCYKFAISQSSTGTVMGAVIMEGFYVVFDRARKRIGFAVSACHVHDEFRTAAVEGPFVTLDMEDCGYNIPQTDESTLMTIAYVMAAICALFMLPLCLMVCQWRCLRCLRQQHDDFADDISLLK

| IC50 | Structure (SMILES) |
| --- | --- |
| 194 µM | CC(C)CC1NC(=O)C(SCc2cccc(C(F)(F)F)c2)C1=O (configuration not stated) [Tetramic acid, 25] |
| 105 µM | O=C1OC(c2ccccc2)C(=O)C1Sc1ccccc1 (configuration not stated) [Tetramic acid, 72] |
| 212 µM | O=C1CN(Cc2ccccc2)C(=O)C1SCc1cccc(C(F)(F)F)c1 (configuration not stated) [N-Substituted tetramic acid, 92] |
| > 200 µM | O=C1CN(Cc2cccc(C(F)(F)F)c2)C(=O)C1Sc1ccccc1 (configuration not stated) [N-Substituted tetramic acid, 89] |
| 145 µM | O=C1NC(Cc2ccccc2)C(=O)C1SCc1ccco1 (configuration not stated) [Tetramic acid, 56] |
| > 200 µM | O=C1OC(c2ccccc2)C(=O)C1SCCc1ccccc1 (configuration not stated) [Tetramic acid, 74] |
| > 200 µM | CCC(C)C1NC(=O)C(SCC(=O)NCc2ccc3c(c2)OCO3)C1=O (configuration not stated) [Tetramic acid, 44] |
| 200 µM | CC(C)CC1NC(=O)C(SCC(=O)NCc2ccc3c(c2)OCO3)C1=O (configuration not stated) [Tetramic acid, 30] |
| 60 µM | CCC(C)C1NC(=O)C(SCc2cccc(C(F)(F)F)c2)C1=O (configuration not stated) [Tetramic acid, 38] |
| 200 µM | CCC(C)C1NC(=O)C(SCc2ccco2)C1=O (configuration not stated) [Tetramic acid, 43] |
| > 200 µM | COc1ccc(CN2CC(=O)C(Sc3ccccc3)C2=O)cc1 (configuration not stated) [N-Substituted tetramic acid, 91] |
| > 200 µM | O=C1OC(CCc2ccccc2)C(=O)C1SCc1cccc(C(F)(F)F)c1 (configuration not stated) [Tetramic acid, 77] |
